From publication PMC12910498 (ACS pharmacology & translational science, 2026)
Like-named read-outs stand apart in the source and are kept apart here.

Experiments:
[1] = Pharmacokinetics study in rats (plasma and brain); format: in vivo, Sprague−Dawley rats; details: rat, 10 mg/kg IP
Experimental: Given their adequate in vitro stability profiles, we next evaluated the in vivo pharmacokinetic profiles of 14, 15, 17, and 18 in rats. Sprague−Dawley rats were dosed with 5 mg/kg (14, 15, 17) or 10 mg/kg (18), i.p., and plasma and brain levels of each drug were measured 0−6 h postdose.
All animal experiments were performed following the protocols evaluated and approved by the Animal Care and Use Committee at Johns Hopkins University (Ethics Approval Number: RA24M403). Pharmacokinetic studies in Sprague−Dawley (SD) rats were conducted according to protocols approved. SD rats obtained from Harlan were maintained on a 12 h light−dark cycle with ad libitum access to food and water. Test compound was administered via i.p. injection at a dose of 10 mg/kg (100% saline vehicle, 10 mL/kg volume). The rats were sacrificed at specified time points (0.25, 0.5 h, 1, 2, 4, and 6 h) post drug administration. For the collection of plasma and brain tissue, animals were euthanized with CO2, and blood samples were collected in heparinized microtubes by cardiac puncture. Brains were dissected and immediately flash-frozen (−80 °C). Blood samples were spun at 2000g for 15 min, and plasma was removed and stored at −80 °C until analysis (as described below).
Quantitation of triazole analogs 14, 15, 17, and 18 was performed using liquid chromatography with tandem mass spectrometry (LC/MS-MS) methods. Briefly, calibration standards were prepared using respective tissue (naïve plasma and brain) with additions of the test compounds. For quantifying the test compounds in the pharmacokinetic samples, plasma samples (20 μL) were processed using a single liquid extraction method by addition of 100 μL of acetonitrile containing internal standard (losartan: 0.5 μM), followed by vortex-mixing for 30 s and then centrifugation at 10,000g for 10 min at 4 °C. Brain tissues were diluted 1:5 w/v with acetonitrile containing losartan (0.5 μm) and homogenized, followed by vortex-mixing and centrifugation at 10,000g for 10 min at 4 °C. A 50 μL aliquot of the supernatant was diluted with 50 μL of water and transferred to 250 μL polypropylene autosampler vials sealed with Teflon caps. Two μL of the sample was injected into the LC/MS/MS system for analysis. Chromatographic analysis was performed using an Accela ultra high-performance system consisting of an analytical pump and an autosampler coupled with a TSQ Vantage mass spectrometer. […] The mobile phase consisted of 0.1% formic acid in acetonitrile and 0.1% formic acid in water with gradient elution, starting with 10% organic phase (from 0 to 1 min) linearly increasing to 95% (from 1 to 2 min), and re-equilibrating to 10% by 3 min. The total run time for each analyte was 3.5 min. Pumps were operated at a flow rate of 0.4 mL/min. […] Plasma concentrations (nmol/mL) as well as brain tissue concentrations (nmol/g) were determined and plots of mean plasma concentration versus time were constructed. Noncompartmental analysis modules in Phoenix WinNonlin version 7.0 (Certara USA, Inc., Princeton, NJ) were used to quantify exposures (AUC0−t) and half-life (t1/2).

human D4R [2] = molecular target: T1, human D4R (Homo sapiens, UniProt P21917)
T1 sequence (P21917 1-419): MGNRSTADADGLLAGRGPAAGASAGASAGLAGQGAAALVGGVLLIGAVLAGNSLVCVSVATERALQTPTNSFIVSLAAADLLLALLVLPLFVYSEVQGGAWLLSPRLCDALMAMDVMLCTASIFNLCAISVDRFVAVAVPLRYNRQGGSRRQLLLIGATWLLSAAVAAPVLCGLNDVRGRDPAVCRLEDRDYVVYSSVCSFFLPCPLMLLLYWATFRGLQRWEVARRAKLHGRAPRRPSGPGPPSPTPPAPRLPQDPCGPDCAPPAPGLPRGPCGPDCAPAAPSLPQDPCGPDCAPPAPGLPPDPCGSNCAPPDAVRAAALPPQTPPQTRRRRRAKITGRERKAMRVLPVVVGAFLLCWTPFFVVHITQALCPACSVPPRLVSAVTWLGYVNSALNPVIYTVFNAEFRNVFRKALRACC
Experimental: We investigated the effects of the triazole linker on D4R-mediated inhibition of forskolin-stimulated cAMP accumulation. […] All compounds were tested in both agonist and antagonist modes using CHO-K1 cells stably expressing the human D4R.
D4R-mediated inhibition of forskolin-stimulated cAMP production was assayed using the PerkinElmer LANCE Ultra cAMP assay kit (PerkinElmer, Inc., Waltham, MA). CHO-K1 cells stably expressing the human D4R were maintained in Ham’s F12 supplemented with 10% fetal bovine serum, 100 U/mL penicillin, 100 μg/mL streptomycin, 800 μg/mL G418, and 300 μg/mL hygromycin at 37 °C, 5% CO2, and 90% humidity. Cells were seeded in Hank’s balanced salt solution (with CaCl2 and MgCl2) with 5 mM HEPES buffer and 0.2 μM sodium metabisulfite at a density of 5000 cells/well in 384-well white plates. Compounds and forskolin were made in the same buffer. […] Eu-cAMP tracer and ULight-anti-cAMP solutions were added as directed by the manufacturer and cells were incubated for 2 h in the dark at room temperature, after which a time-resolved fluorescence resonance energy transfer (TR-FRET) signal was measured using a BMG Labtech PHERAstar Fs (BMG Labtech USA, Cary, NC). […] The data from each experiment was fit, as described above, with the Emax, Ant. %, EC50, and IC50 values extracted from the nonlinear regression. These values were then averaged together across experiments using descriptive statistics in Prism and reported as means ± SEM.

human D4R [3] = molecular target: T1, human D4R; assay: [3H]N-methylspiperone radioligand competition binding, hD4R membranes
D1 = molecular target: T2, D1 (Homo sapiens, UniProt P21728); assay: PDSP primary screen and secondary assay, D1; format: binding
T2 construct: Psychoactive Drug Screening Program (PDSP)
From the text: Receptor Primary Secondary Primary Secondary Primary Secondary Primary Secondary screen assay screen assay screen assay screen assay […]
inhibition in primary assessment.

[4] = Phase I metabolic stability in human liver microsomes (with NADPH); format: in vitro ADME; details: pH 7.4, presence of NADPH, mean ± SD, n = 3
Experimental: We evaluated the Phase I metabolic stability of compounds 2−7 and 14−19 using rat and human liver microsomes, as previously described.[45]
Phase I metabolic stability assays were conducted using rat and human liver microsomes as previously described[45],[70] with minor modifications. In brief, the reactions were carried out with 100 mM potassium phosphate buffer, pH 7.4, in the presence of NADPH regenerating system (1.3 mM NADPH, 3.3 mM glucose 6-phosphate, 3.3 mM MgCl2, 0.4 U/mL glucose-6-phosphate dehydrogenase, 50 μM sodium citrate). Negative controls without cofactors were assessed to determine the non-CYP-mediated metabolism. Compound disappearance was monitored over time using a liquid chromatography and tandem mass spectrometry (LC/MS) method. All reactions were performed in triplicate.
Chromatographic analysis was performed on a Dionex ultra high-performance LC system coupled with Q Exactive Focus orbitrap mass spectrometer (Thermo Fisher Scientific Inc., Waltham MA). Separation was achieved using Agilent Eclipse Plus column (100 × 2.1 mm^2 i.d.; maintained at 35 °C) packed with a 1.8 μm C18 stationary phase. […] The total run time for each analyte was 6.5 min. Pumps were operated at a flow rate of 0.3 mL/min. The mass spectrometer controlled by Xcalibur software 4.0.27.13 (Thermo Scientific) was operated with a HESI ion source in positive ionization mode. Compounds were identified in the full-scan mode (from m/z 50 to 750) by comparing t = 0 samples with t = 30 min and t = 60 min samples.

T2 sequence (P21728 whole entry): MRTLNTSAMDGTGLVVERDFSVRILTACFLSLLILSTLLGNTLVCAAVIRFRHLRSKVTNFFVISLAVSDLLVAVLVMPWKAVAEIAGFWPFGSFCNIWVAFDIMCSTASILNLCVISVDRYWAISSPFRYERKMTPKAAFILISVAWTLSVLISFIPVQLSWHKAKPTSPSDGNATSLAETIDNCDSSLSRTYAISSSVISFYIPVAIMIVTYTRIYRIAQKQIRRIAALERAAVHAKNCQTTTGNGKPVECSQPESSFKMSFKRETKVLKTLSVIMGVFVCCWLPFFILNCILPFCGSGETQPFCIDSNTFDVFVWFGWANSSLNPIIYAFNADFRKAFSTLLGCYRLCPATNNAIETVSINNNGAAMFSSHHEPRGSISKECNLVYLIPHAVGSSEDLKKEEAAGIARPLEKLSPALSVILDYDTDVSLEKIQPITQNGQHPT

Molecule `Cc1cccc(-n2cc(CN3CCN(c4cccc5ccccc45)CC3)nn2)c1` [Compound 18, 1-(Naphthalen-1-yl)-4-((1-(m-tolyl)-1H-1,2,3-triazol-4-yl)methyl)piperazine] has a Kp ([1]; Sprague-Dawley, brain and plasma, ip, 10 mg/kg, AUC brain/plasma, read-out: brain: Plasma ratio) of over 2.6, a half-life ([1]; Sprague-Dawley, brain, ip, 10 mg/kg, brain, read-out: half-life (h) brain (converted)) of 2.46 h and a half-life ([1]; Sprague-Dawley, plasma, ip, 10 mg/kg, plasma, read-out: half-life (h) plasma (converted)) of 2.54 h. It also gave a half-life ([1]; Sprague-Dawley, plasma, ip, 10 mg/kg, tissue not specified, read-out: half-life (converted)) of about 2.5 h, a Tmax ([1]; Sprague-Dawley, brain, read-out: Tmax (h) brain) of 0.5 h and an AUC ([1]; Sprague-Dawley, plasma) of 1.36 ± 0.29 µM·h. The Cmax ([1]; Sprague-Dawley, plasma) was 700 ± 90 nM, the Tmax ([1]; Sprague-Dawley, plasma, read-out: Tmax (h) plasma) was 0.5 h and the “brain: Plasma ratio” value ([1]; AUC brain/plasma, 10 mg/kg) was 2.63. The AUC brain ([1]; brain) was 3.57 ± 0.77 nmol·h/g, the Cmax brain ([1]; brain) was 2.08 ± 0.20 nmol/g and the “peak in vivo brain concentrations expected” value ([1]; from brain Cmax) was “greater than 2.0 μM”. The EC50 (human D4R [2]) was 2140 ± 1070 nM, the IC50 (human D4R [2]) was 904 ± 102 nM and the “D4R Ant. (%)” value (human D4R [2]; cAMP, antagonist mode, 10 μM forskolin and 10 nM dopamine, normalized to spiperone) was 72 ± 5%. For the same molecule, the Emax (human D4R [2]; read-out: D4R Emax (%)) was 24 ± 7%, the Ki (human D4R [3]) was 4.33 ± 1.02 nM and the “Selectivity D2R/D4R” value (human D4R [3]; ratio of Ki values) was 1510. For the same molecule, the “Selectivity D3R/D4R” value (human D4R [3]; ratio of Ki values) was 2504, the Ki (D1) was 783 nM and the inhibition at 10 µM (D1; 10 µM compound) was 59.3%. For the same molecule, the half-life [4] was 1.02 ± 0.129 h.
